Reference: ChEMBL document CHEMBL3045439, “Isoforms of the heteropteran Nezara viridula ecdysone receptor: protein characterisation, RH5992 insecticide binding and homology modelling” (Pest Manag Sci, 2011)

Assays:
Format in all cases: protein-complex assay
Ecdysone receptor [1] = target: T1, Ecdysone receptor (Nezara viridula, UniProt E5L6Y0+E5L6Y1); assay: Binding affinity to Nezara viridula EcR
T1 sequence (E5L6Y1 whole entry): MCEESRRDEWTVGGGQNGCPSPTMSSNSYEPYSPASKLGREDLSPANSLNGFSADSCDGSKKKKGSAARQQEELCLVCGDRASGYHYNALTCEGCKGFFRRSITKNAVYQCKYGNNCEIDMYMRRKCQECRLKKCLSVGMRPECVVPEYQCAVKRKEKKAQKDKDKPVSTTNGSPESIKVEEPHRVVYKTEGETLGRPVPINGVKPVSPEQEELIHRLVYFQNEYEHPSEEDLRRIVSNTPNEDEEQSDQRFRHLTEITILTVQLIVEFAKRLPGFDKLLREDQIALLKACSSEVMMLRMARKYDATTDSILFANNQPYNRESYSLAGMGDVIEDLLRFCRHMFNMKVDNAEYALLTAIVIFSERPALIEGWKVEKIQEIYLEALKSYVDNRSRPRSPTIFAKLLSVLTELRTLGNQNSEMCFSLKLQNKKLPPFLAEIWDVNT
T1 sequence (E5L6Y0 whole entry): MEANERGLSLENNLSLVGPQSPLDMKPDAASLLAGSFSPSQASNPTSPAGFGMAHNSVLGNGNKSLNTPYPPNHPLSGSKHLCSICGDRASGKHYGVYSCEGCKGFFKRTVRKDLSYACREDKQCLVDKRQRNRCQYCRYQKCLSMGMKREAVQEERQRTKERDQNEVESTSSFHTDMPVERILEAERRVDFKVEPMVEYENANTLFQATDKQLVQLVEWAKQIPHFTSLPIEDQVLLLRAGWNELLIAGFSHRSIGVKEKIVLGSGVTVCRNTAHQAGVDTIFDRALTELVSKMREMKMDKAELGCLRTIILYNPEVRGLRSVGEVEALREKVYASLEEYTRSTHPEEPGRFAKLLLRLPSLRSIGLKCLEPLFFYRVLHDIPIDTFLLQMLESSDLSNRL

Ecdysone receptor [2] = target: T2, Ecdysone receptor (Leptinotarsa decemlineata, UniProt Q4W6C8+Q4W6D0); assay: Binding affinity to Leptinotarsa decemlineata EcR
T2 sequence (Q4W6D0 whole entry): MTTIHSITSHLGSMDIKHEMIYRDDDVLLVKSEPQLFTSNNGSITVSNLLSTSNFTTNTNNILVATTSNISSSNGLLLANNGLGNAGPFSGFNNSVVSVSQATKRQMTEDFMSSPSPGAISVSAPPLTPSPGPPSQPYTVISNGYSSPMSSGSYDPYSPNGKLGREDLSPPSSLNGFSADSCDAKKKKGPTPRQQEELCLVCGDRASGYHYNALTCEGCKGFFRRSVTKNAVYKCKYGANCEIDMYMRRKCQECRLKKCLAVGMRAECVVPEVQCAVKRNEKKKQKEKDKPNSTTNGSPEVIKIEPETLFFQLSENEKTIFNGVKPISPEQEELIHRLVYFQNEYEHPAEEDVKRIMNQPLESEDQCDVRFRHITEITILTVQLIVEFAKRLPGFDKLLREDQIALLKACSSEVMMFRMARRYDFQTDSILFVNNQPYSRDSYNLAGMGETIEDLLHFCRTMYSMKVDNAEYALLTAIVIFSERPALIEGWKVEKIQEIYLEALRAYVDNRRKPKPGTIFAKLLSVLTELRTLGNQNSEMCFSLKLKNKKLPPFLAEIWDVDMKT
T2 sequence (Q4W6C8 whole entry): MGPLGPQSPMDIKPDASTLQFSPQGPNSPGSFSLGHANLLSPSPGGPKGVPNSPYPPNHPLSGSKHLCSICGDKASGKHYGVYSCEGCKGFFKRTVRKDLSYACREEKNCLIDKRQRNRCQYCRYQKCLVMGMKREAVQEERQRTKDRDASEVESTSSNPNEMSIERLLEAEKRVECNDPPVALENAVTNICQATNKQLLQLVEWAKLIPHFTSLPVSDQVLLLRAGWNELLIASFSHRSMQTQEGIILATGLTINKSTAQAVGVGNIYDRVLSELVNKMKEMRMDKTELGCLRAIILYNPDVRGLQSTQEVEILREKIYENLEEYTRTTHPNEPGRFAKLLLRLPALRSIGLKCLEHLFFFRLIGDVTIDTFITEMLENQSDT

Ecdysone receptor [3] = target: T1, Ecdysone receptor; assay: Displacement of [3H]PonA from recombinant Nezara viridula EcR11

| IC50 (Ecdysone receptor [1]) [µM] | IC50 (Ecdysone receptor [2]) [µM] | SMILES | IC50 (Ecdysone receptor [3]) [µM] | Ki (Ecdysone receptor [3]) [µM] | Ki (Ecdysone receptor [1]) [µM] | Ki (Ecdysone receptor [2]) [µM] |
| --- | --- | --- | --- | --- | --- | --- |
| 1.05 | 0.437 | CC(C)(O)CC[C@@H](O)[C@](C)(O)[C@H]1CC[C@@]2(O)C3=CC(=O)[C@@H]4C[C@@H](O)[C@@H](O)C[C@]4(C)[C@H]3CC[C@]12C [20-HYDROXYECDYSONE] | 4.5 | 3 |  |  |
|  |  | CCc1ccc(C(=O)NN(C(=O)c2cc(C)cc(C)c2)C(C)(C)C)cc1 [TEBUFENOZIDE] | 28 | 23.9 | 25.1 | 2.51 |
